Assay results: patent US20080287513A1, “Topical compositions containing metronidazole” (priority 2007, published 2008)
Blank lines part the entries; values can stand above or below the compound they belong to.

Tests used:
[1] = Physical stability test of aqueous metronidazole compositions (crystal formation or precipitation); type: physicochemical; details: for Results from stability test: 24 h room temperature then 7 days at about 4 °C
Procedure: The solubility enhancing effect of the combination of niacinamide and urea in increasing the solubility of metronidazole in the aqueous compositions is evaluated by physical stability of the prepared compositions.
Therefore, the formulations are subject to a physical stability test. The protocol for the stability test is as follows: metronidazole and the solubility enhancing agents are combined with water either at room temperature or elevated temperature while stirring until dissolved. The solutions are permitted to cool to room temperature. Customary auxiliaries and additives may be added to the aqueous solutions containing solubilized metronidazole and solubility enhancing agents. The solutions may be gelled by using the suitable gelling agents. The compositions both in gel or solution form are then packaged in clear glass vials and sealed. The vials are kept at room temperature for 24 hours and monitored for crystal formation or precipitation. After 24 hours, the vials are placed in a refrigerator maintained at a temperature of about 4° C. for 7 days. After 7 days, the vials are removed from the refrigerator. Evidence of crystal formation or precipitation is examined.
(§1) Each formulation was prepared by combining niacinamide and metronidazole in water (q.s 100%). The mixture was kept at a temperature of about 45° C. while stirring until dissolved. The solutions were permitted to cool to room temperature, packaged and sealed in glass vials. The stability tests described in Example 1 were performed and the test results were recorded.
as §1, with “urea” for “niacinamide”
as §1, with “urea, niacinamide,” for “niacinamide”, “kept either at room temperature or” for “kept”

[2] = at 25 °C; cited from earlier work

Results from stability test ([1]; 1.0% metronidazole + 1.0% urea + 3.0% niacinamide in water): Crystals
Results from stability test ([1]; 1.0% metronidazole + 1.0% urea + 4.0% niacinamide in water): Clear
Results from stability test ([1]; 1.0% metronidazole + 2% niacinamide in water): Crystals formed
Results from stability test ([1]; 1.0% metronidazole + 3% niacinamide in water): Crystals formed
Results from stability test ([1]; 1.0% metronidazole + 3.0% urea + 3.0% niacinamide in water): Clear
Results from stability test ([1]; 1.0% metronidazole + 4% niacinamide in water): Crystals formed
Results from stability test ([1]; 1.0% metronidazole + 4.0% urea + 1.0% niacinamide in water): Crystals
Results from stability test ([1]; 1.0% metronidazole + 5% niacinamide in water): Clear
Results from stability test ([1]; 1.0% metronidazole + 5.0% urea + 1.0% niacinamide in water): Clear
Results from stability test ([1]; 1.0% metronidazole + 5.0% urea + 1.0% niacinamide in water, listed as metronidazole): stable
Results from stability test ([1]; 1.0% metronidazole + 5.0% urea + 2.0% niacinamide in water): Clear
Results from stability test ([1]; 1.0% metronidazole + 7% urea in water): Crystals formed
Results from stability test ([1]; 1.0% metronidazole + 7% urea in water, listed as metronidazole): not sufficient to solubilize
Results from stability test ([1]; 1.0% metronidazole + 8% urea in water): Crystals formed
Results from stability test ([1]; 1.0% metronidazole + 9% urea in water): Crystals formed
Results from stability test ([1]; 1.0% metronidazole + 10% urea in water): Clear
Results from stability test ([1]; 1.2% metronidazole + 10.0% urea + 2.0% niacinamide in water): Clear
Results from stability test ([1]; 1.5% metronidazole + 15.0% urea + 4.0% niacinamide in water): Clear
Structure (SMILES): Cc1ncc([N+](=O)[O-])n1CCO [Metronidazole, 1-(2-hydroxyethyl)-2-methyl-5-nitroimidazole]

Concentration of niacinamide needed to obtain a stable aqueous solution of 1.0% metronidazole ([1]; concentration of urea is 1.0%): about 4.0%
Urea concentration functionally equivalent to 1% niacinamide in inducing the solubility enhancing effect ([1]; from Examples 2 and 3, 1.0% metronidazole): about 2%
Concentration of niacinamide required to obtain a stable aqueous solution of 1.0% metronidazole ([1]; niacinamide as the only solubility enhancing agent): about 5%
Structure (SMILES): NC(=O)c1cccnc1 [niacinamide]
Water solubility limit [2]: about 50 % by weight

Concentration of urea needed to obtain a stable aqueous solution of 1.0% metronidazole ([1]; concentration of niacinamide is 1.0%): ≥ 5.0%
Concentration of urea required to obtain a stable aqueous solution of 1.0% metronidazole ([1]; urea as the only solubility enhancing agent): about 10%
Structure (SMILES): NC(N)=O [urea]
Water solubility limit [2]: about 50 % by weight
